The numbers were not newly measured in PubChem BioAssay AID1259409 (Chemical Carcinogenesis Research Information System (CCRIS), 2018), which cites them from elsewhere.

For this series, the system named is rodent chemically induced tumor inhibition, incidence and multiplicity. The series can be described thus: CCRIS tumor inhibitor studies. The settings on record: Route [Inhibitor]: ORAL, Promoter: NONE USED.

On to `CC1=C(/C=C/C(C)=C/C=C/C(C)=C\C(=O)O)C(C)(C)CCC1`, for which the “tumour outcome (control, treated, inhibition, significance)” value (Carcinogen: N-(4-(5-NITRO-2-FURYL)-2-THIAZOLYL)FORMAMIDE, 24554-26-5, Dose [Inhibitor]: 120 MG/KG DIET DAILY STARTING 1 WK AFTER COMPLETION OF CARCINOGEN TREATMENT AND CONTINUING UNTIL END OF STUDY (STUDY DUR, Species: RAT, Strain/Sex: F344/FEMALE, Target Tissue: Type of Lesion: URINARY BLADDER: PAPILLOMA, Dose [Carcinogen]: 2 G/KG DIET DAILY FOR 10 WK) was 10/100 (10%), 12/100 (12%), -20%, p 0.655; the “tumour outcome (control, treated, inhibition, significance)” value (Carcinogen: N-(4-(5-NITRO-2-FURYL)-2-THIAZOLYL)FORMAMIDE, 24554-26-5, Dose [Inhibitor]: 240 MG/KG DIET DAILY STARTING 1 WK AFTER COMPLETION OF CARCINOGEN TREATMENT AND CONTINUING UNTIL END OF STUDY (STUDY DUR, Species: RAT, Strain/Sex: F344/FEMALE, Target Tissue: Type of Lesion: URINARY BLADDER: CARCINOMA, Dose [Carcinogen]: 2 G/KG DIET DAILY FOR 10 WK) is given as 36/100 (36%), 47/100 (47%), -31%, p 0.024; the “tumour outcome (control, treated, inhibition, significance)” value (Carcinogen: N-(4-(5-NITRO-2-FURYL)-2-THIAZOLYL)FORMAMIDE, 24554-26-5, Dose [Inhibitor]: 240 MG/KG DIET DAILY STARTING 1 WK AFTER COMPLETION OF CARCINOGEN TREATMENT AND CONTINUING UNTIL END OF STUDY (STUDY DUR, Species: RAT, Strain/Sex: F344/FEMALE, Target Tissue: Type of Lesion: URINARY BLADDER: PAPILLOMA, Dose [Carcinogen]: 2 G/KG DIET DAILY FOR 10 WK) is reported as 10/100 (10%), 7/100 (7%), 30%, p 0.446; the “tumour outcome (control, treated, inhibition, significance)” value (Carcinogen: N-BUTYL-N-(4-HYDROXYBUTYL)NITROSAMINE, 3817-11-6, Dose [Inhibitor]: 0.8 MMOL/KG DIET DAILY FOR 19 WK STARTING 7 D AFTER FINAL CARCINOGEN DOSE (STUDY DURATION: 6 MO), Species: RAT, Strain/Sex: F344/FEMALE, Target Tissue: Type of Lesion: URINARY BLADDER: TRANSITIONAL CELL CARCINOMA, Dose [Carcinogen]: 150 MG 2/WK FOR 6 WK) is on record as 28/80 (35%), 7/40 (18%), 49%, p<0.05; the “tumour outcome (control, treated, inhibition, significance)” value (Carcinogen: N-BUTYL-N-(4-HYDROXYBUTYL)NITROSAMINE, 3817-11-6, Dose [Inhibitor]: 0.8 MMOL/KG DIET DAILY FOR 19 WK STARTING 7 D AFTER FINAL CARCINOGEN DOSE (STUDY DURATION: 6 MO), Species: RAT, Strain/Sex: F344/MALE, Target Tissue: Type of Lesion: URINARY BLADDER: TRANSITIONAL CELL CARCINOMA, Dose [Carcinogen]: 200 MG 2/WK FOR 8 WK) is reported as 55/60 (92%), 24/30 (80%), 13%, not significant; the “tumour outcome (control, treated, inhibition, significance)” value (Carcinogen: N-BUTYL-N-(4-HYDROXYBUTYL)NITROSAMINE, 3817-11-6, Dose [Inhibitor]: 150 MG/G DIET DAILY STARTING 7 D AFTER THE LAST CARCINOGEN DOSE AND CONTINUING THROUGH THE END OF THE STUDY (STUDY DURAT, Species: MOUSE, Strain/Sex: B6D2F1/FEMALE, MALE, Target Tissue: Type of Lesion: URINARY BLADDER: TRANSITIONAL CELL CARCINOMA, Dose [Carcinogen]: 10 MG 2/WK FOR 9 WK) is recorded as 23/54 (43%), 19/55 (35%), 19%, not significant. In addition, the “tumour outcome (control, treated, inhibition, significance)” value reads like this: (Carcinogen: N-BUTYL-N-(4-HYDROXYBUTYL)NITROSAMINE, 3817-11-6, Dose [Inhibitor]: 150 MG/KG DIET DAILY STARTING 7 D AFTER THE LAST CARCINOGEN DOSE AND CONTINUING THROUGH THE END OF THE STUDY (STUDY DURA, Species: MOUSE, Strain/Sex: B6D2F1/FEMALE, MALE, Target Tissue: Type of Lesion: URINARY BLADDER: TRANSITIONAL CELL CARCINOMA, Dose [Carcinogen]: 5 MG 2/WK FOR 9 WK) 29/71 (41%), 19/69 (28%), 32%, not significant; (Carcinogen: N-BUTYL-N-(4-HYDROXYBUTYL)NITROSAMINE, 3817-11-6, Dose [Inhibitor]: 200 MG/G DIET DAILY STARTING 7 D AFTER THE LAST CARCINOGEN DOSE AND CONTINUING THROUGH THE END OF THE STUDY (STUDY DURAT, Species: MOUSE, Strain/Sex: B6D2F1/FEMALE, MALE, Target Tissue: Type of Lesion: URINARY BLADDER: TRANSITIONAL CELL CARCINOMA, Dose [Carcinogen]: 5 MG 2/WK FOR 9 WK) 29/71 (41%), 17/71 (24%), 41%, p<0.05; (Carcinogen: N-BUTYL-N-(4-HYDROXYBUTYL)NITROSAMINE, 3817-11-6, Dose [Inhibitor]: 200 MG/G DIET DAILY STARTING 7 D AFTER THE LAST CARCINOGEN DOSE AND CONTINUING THROUGH THE END OF THE STUDY (STUDY DURAT, Species: MOUSE, Strain/Sex: B6D2F1/FEMALE, MALE, Target Tissue: Type of Lesion: URINARY BLADDER: TRANSITIONAL CELL CARCINOMA, Dose [Carcinogen]: 10 MG 2/WK FOR 9 WK) 23/54 (43%), 12/54 (22%), 49%, p<0.05; (Carcinogen: N-BUTYL-N-(4-HYDROXYBUTYL)NITROSAMINE, 3817-11-6, Dose [Inhibitor]: 200 MG/KG DIET DAILY STARTING 7 D AFTER LAST CARCINOGEN DOSE AND CONTINUING THROUGH THE END OF STUDY (STUDY DURATION: 6, Species: MOUSE, Strain/Sex: C57BL/MALE, Target Tissue: Type of Lesion: URINARY BLADDER: NEOPLASM, Dose [Carcinogen]: 7.5 MG 2/WK FOR 6 WK) 9/24 (38%), 1/19 (5%), 87%, p<0.05.
